These results are taken from patent publication US7939556B2, “Imidazole derivatives and their use for modulating the GABAA receptor complex” (Neurosearch A/S, priority 2005, dated 2011).

The term IC50 denotes the midpoint of a concentration-inhibition curve. A low value points to higher potency.

This assay deals with benzodiazepine modulatory unit of the GABAA receptor complex. Kind of assay: In vitro inhibition of 3H-flunitrazepam (3H-FNM) binding. Conditions: inhibition of specific binding of 3H-FNM (1 nM), rat cerebral cortex membranes, 40 min at 2° C. The procedure:
In Vitro Inhibition of ^3H-Flunitrazepam (^3H—FNM) Binding
The GABA recognition site and the benzodiazepine modulatory unit can selectively be labelled with ^3H-flunitrazepam.
Preparations are performed at 0-4° C. unless otherwise indicated. Cerebral cortex from male Wistar rats (150-200 g) is homogenised for 5-10 sec in 20 ml Tris-HCl (30 mM, pH 7.4) using an Ultra-Turrax homogeniser. The suspension is centrifuged at 27,000×g for 15 min and the pellet is washed three times with buffer (centrifuged at 27,000×g for 10 min). The washed pellet is homogenized in 20 ml of buffer and incubated on a water bath (37° C.) for 30 min to remove endogenous GABA and then centrifuged for 10 min at 27,000×g. The pellet is then homogenized in buffer and centrifuged for 10 min at 27,000×g. The final pellet is resuspended in 30 ml buffer and the preparation is frozen and stored at −20° C.
The membrane preparation is thawed and centrifuged at 2° C. for 10 min at 27,000×g. The pellet is washed twice with 20 ml 50 mM Tris-citrate, pH 7.1 using an Ultra-Turrax homogeniser and centrifuged for 10 min at 27,000×g. The final pellet is resuspended in 50 mM Tris-citrate, pH 7.1 (500 ml buffer per g of original tissue), and then used for binding assays. Aliquots of 0.5 ml tissue are added to 25 μl of test solution and 25 μl of ^3H—FNM (1 nM, final concentration), mixed and incubated for 40 min at 2° C. Non-specific binding is determined using Clonazepam (1 μM, final concentration). After incubation the samples are added 5 ml of ice-cold buffer and poured directly onto Whatman GF/C glass fibre filters under suction and immediately washed with 5 ml ice-cold buffer. The amount of radioactivity on the filters is determined by conventional liquid scintillation counting. Specific binding is total binding minus non-specific binding.
25-75% inhibition of specific binding must be obtained, before calculation of an IC50.
The test value will be given as IC50 (the concentration (μM) of the test substance which inhibits the specific binding of ^3H—FNM by 50%).
Co is specific binding in control assays, and […]
Take `CCOC(=O)c1cn(-c2cccc(COCc3ccccn3)c2)cn1` [Compound 11a, 1-[3-(Pyridin-2-ylmethoxymethyl)-phenyl]-1H-imidazole-4-carboxylic acid ethyl ester]: the half-maximal inhibitory concentration (IC50) turned out to be 24 nM.

The compound `CCOC(=O)c1cn(-c2cccc(Br)c2)cn1` [Compound 16, 1-(3-Bromo-phenyl)-1H-imidazole-4-carboxylic acid ethyl ester] registered an IC50 of 24 nM.

`COC(=O)c1cn(-c2cccc([N+](=O)[O-])c2)cn1` [Compound 20, 1-(3-Nitro-phenyl)-1H-imidazole-4-carboxylic acid methyl ester] yielded an IC50 of 180 nM.
